Experimental data published in ChEMBL document CHEMBL1177695, “Discovery and development of natural product-derived chemotherapeutic agents based on a medicinal chemistry approach” (J Nat Prod, 2010).
Values after ≈ are worked out from the molar mass of the structure shown.

Assays:
KB [1] = test: Cytotoxicity against human KB cells after 72 hrs by MTT assay; assay type: functional, cell-based; settings: for EC50: read-out: ED50 (the source's name)
[2] = Cytotoxicity against human KB1 cells after 72 hrs by MTT assay; assay type: functional, cell-based; settings: KB1, 72 h
[3] = Cytotoxicity against human KB-7d cells after 72 hrs by MTT assay; assay type: functional, cell-based; settings: KB7D; for EC50: read-out: ED50 (the source's name)
KB [4] = test: Cytotoxicity against human etoposide-resistant KB cells after 72 hrs by MTT assay
[5] = system: Human immunodeficiency virus 1; test: Antiviral activity against HIV1 infected in human H9 cells after 4 days by p24 antigen ELISA; assay type: functional, organism-based; settings: Human immunodeficiency virus 1, H9, 96 h
[6] = Therapeutic index, ratio of IC50 for human H9 cells to EC50 for HIV1; assay type: cell-based; settings: read-out: TI
[7] = Cytotoxicity against human H9 cells after 4 days by coulter counter; assay type: cell-based; settings: human, H9 cells; read-out: TI
[8] = system: Human immunodeficiency virus 1; test: Antiviral activity against HIV1 3B infected in H9 cells assessed as inhibition of viral replication by p24 antigen ELISA; assay type: functional, organism-based
[9] = Therapeutic index, ratio of IC50 for human H9 cells to EC50 for HIV 3B; assay type: cell-based; settings: read-out: TI
A549 = test: Cytotoxicity against human A549 cells after 3 days by sulforhodamine B assay; assay type: functional, cell-based; settings: A549, 72 h
1A9 = test: Cytotoxicity against human 1A9 cells after 3 days by sulforhodamine B assay; assay type: functional, cell-based; settings: 1A9, 72 h
A-431 = test: Cytotoxicity against human A431 cells after 3 days by sulforhodamine B assay; assay type: functional, cell-based; settings: A-431, 72 h
HCT-8 = test: Cytotoxicity against human HCT8 cells after 3 days by sulforhodamine B assay; assay type: functional, cell-based; settings: HCT-8, 72 h
PC-3 = test: Cytotoxicity against human PC3 cells after 3 days by sulforhodamine B assay; assay type: functional, cell-based; settings: PC-3, 72 h
KB [10] = test: Cytotoxicity against human KB cells after 3 days by sulforhodamine B assay; assay type: functional, cell-based; settings: 72 h
[11] = Cytotoxicity against human KBVIN cells after 3 days by sulforhodamine B assay; assay type: functional, cell-based; settings: 72 h
[12] = Human immunodeficiency virus 1, 3B, H9, read-out: EC50

Work on `COc1cc([C@@H]2c3cc4c(cc3[C@@H](Nc3ccc(N)cc3)[C@H]3COC(=O)[C@H]23)OCO4)cc(OC)c1O` yielded an IC50 (KB [1]) of 590 nM, an IC50 [2] of 3500 nM and an IC50 [3] of 7600 nM. It also gave an IC50 (KB [4]) of 2000 nM.
Work on `C=C(C)[C@@H]1CC[C@]2(C(=O)O)CC[C@]3(C)[C@H](CC[C@@H]4[C@@]5(C)CC[C@H](OC(=O)C(C)(C)CC(=O)O)C(C)(C)[C@@H]5CC[C@]43C)[C@@H]12` yielded an IC50 [5] of 15900 nM and a selectivity ratio [6] of 6.7.
With `COc1cc([C@@H]2c3cc4c(cc3[C@@H](Nc3ccc(F)cc3)[C@H]3COC(=O)[C@H]23)OCO4)cc(OC)c1O` the IC50 (KB [1]) was 670 nM, the IC50 [2] was 4000 nM and the IC50 [3] was 8300 nM. The IC50 (KB [4]) was 7200 nM.
`COc1cc(=O)oc2c3c(ccc12)OC(C)(C)[C@H](OC(=O)C12CCC(C)(C(=O)O1)C2(C)C)[C@@H]3OC(=O)C12CCC(C)(C(=O)O1)C2(C)C` (stereo not given in full) showed a selectivity ratio at 96 h [7] of over 15 and an EC50 [8, 12] of 50 nM.
Compound `CC1(C)C=C2[C@H]3CC[C@@H]4[C@@]5(C)CCC(=O)C(C)(C)[C@@H]5CC[C@@]4(C)[C@]3(C)CC[C@@]2(C(=O)O)CC1` [MORONIC ACID] has an EC50 [8, 12] of under 220 nM and a selectivity ratio [9] of over 186.
With `CCC1=C(O)c2c(oc(-c3cccc4ccccc34)cc2=O)C(CC)(CC)C1=O` [2-(NAPHTHALEN-1-YL)-6,8,8-TRIETHYL DESMOSDUMOTIN B] the EC50 (A549) was 0.2 µg/mL (≈ 0.515 µM), the EC50 (1A9) was 0.2 µg/mL (≈ 0.515 µM) and the EC50 (A-431) was 0.2 µg/mL (≈ 0.515 µM). For the same compound, the EC50 (HCT-8) was 0.2 µg/mL (≈ 0.515 µM), the EC50 (PC-3) was 0.2 µg/mL (≈ 0.515 µM) and the EC50 (KB [10]) was 0.2 µg/mL (≈ 0.515 µM). For the same compound, the EC50 [11] was 0.2 µg/mL (≈ 0.515 µM).
Compound `CC(C)=CCC/C(C)=C/CC[C@@]1(C)C=Cc2c(cc(C)c(C(=O)O)c2O)O1` [DAURICHROMENIC ACID] has an EC50 [8, 12] of 15 nM and a selectivity ratio [9] of 3710.
For `COc1cc2ccc(=O)oc2c2c1OC(C)(C)[C@H](OC(=O)C13CCC(C)(C(=O)O1)C3(C)C)[C@@H]2OC(=O)C12CCC(C)(C(=O)O1)C2(C)C` (stereo not given in full), the EC50 ([8]; h9) was “Not Active”.
`COc1cc([C@@H]2c3cc4c(cc3[C@@H](Nc3ccc(C#N)cc3)[C@H]3COC(=O)[C@H]23)OCO4)cc(OC)c1O` gave an IC50 (KB [1]) of 610 nM, an IC50 [2] of 2700 nM and an IC50 [3] of 5000 nM. For the same compound, the IC50 (KB [4]) was 4000 nM.
With `Cc1cc2ccc3c(c2oc1=O)[C@@H](OC(=O)C12CCC(C)(C(=O)O1)C2(C)C)[C@@H](OC(=O)C12CCC(C)(C(=O)O1)C2(C)C)C(C)(C)O3` (stereo not given in full) the EC50 ([8]; h9) was “Not Active”.
Work on `COc1cc2c(c3oc(=O)ccc13)[C@@H](OC(=O)C13CCC(C)(C(=O)O1)C3(C)C)[C@@H](OC(=O)C13CCC(C)(C(=O)O1)C3(C)C)C(C)(C)O2` (stereo not given in full) yielded a selectivity ratio at 96 h [7] of over 15 and an EC50 [8, 12] of 44 nM.
In the case of `COc1cc([C@@H]2c3cc4c(cc3[C@@H](NC3=CCC5(C=C3)OCCO5)[C@H]3COC(=O)[C@H]23)OCO4)cc(OC)c1O`, the IC50 (KB [1]) is reported as 680 nM, the IC50 [2] is reported as 500 nM and the IC50 [3] is reported as 1000 nM. It also gave an IC50 (KB [4]) of 1600 nM.
Compound `OC[C@@H](O)C[C@H]1OCC2(O)c3c(cc(O)c4c3O[C@@H](c3cc(O)c(O)c(O)c3)[C@@H](O)C4)OC12O` (stereo not given in full) has an EC50 [8, 12] of 4000 nM and a selectivity ratio [9] of 9.5.
For `COc1cc([C@@H]2c3cc4c(cc3[C@@H](O[C@@H]3O[C@@H]5CO[C@@H](C)O[C@H]5[C@H](O)[C@H]3O)[C@H]3COC(=O)[C@H]23)OCO4)cc(OC)c1O` [ETOPOSIDE], the IC50 (KB [1]) was 600 nM, the EC50 (KB [1]) was 200 nM and the IC50 [2] was 34800 nM. It also gave an IC50 [3] of 77500 nM, an EC50 [3] of 25000 nM and an IC50 (KB [4]) of 28700 nM.
`COc1cc2c(c(OC)c1OC)-c1c(cc3c(c1OC)OCO3)[C@H](OC(=O)c1ccccc1)[C@@](C)(O)[C@@H](C)C2` [GOMISIN G] gave an EC50 [8, 12] of 11 nM and a selectivity ratio [9] of 600.
Work on `C[C@]12CCC[C@]3(C(=O)OC1)[C@@H]2CC[C@@]12C[C@@H](CC[C@H]13)[C@](C)(O)C2` [NEOTRIPTERIFORDIN] yielded an EC50 [8, 12] of 25 nM and a selectivity ratio [9] of 125.
For `CC(C)(O)[C@H](O)COc1c2occc2cc2ccc(=O)oc12` [HERACLENOL], the EC50 [8, 12] was 380 nM and the selectivity ratio [9] was 870.
With `COc1cc([C@@H]2c3cc4c(cc3[C@@H](Nc3ccc(NC(=O)c5cc([N+](=O)[O-])cn5C)cc3)[C@H]3COC(=O)[C@H]23)OCO4)cc(OC)c1O` the EC50 (KB [1]) was 40 nM and the EC50 [3] was 200 nM.
Compound `C[C@@H]1C[C@H](O)[C@H](O)[C@@H](O[C@H]2CC[C@]3(C=O)[C@H]4CC[C@]5(C)[C@@H](c6ccc(=O)oc6)CC[C@]5(O)[C@@H]4CC[C@]3(O)C2)O1` [KALANCHOSIDE C] has an IC50 (A549) of 0.006 µg/mL (≈ 0.011 µM), an IC50 (1A9) of 0.012 µg/mL (≈ 0.022 µM) and an IC50 (A-431) of 0.055 µg/mL (≈ 0.101 µM). It also gave an IC50 (HCT-8) of 0.045 µg/mL (≈ 0.0823 µM), an IC50 (PC-3) of 0.025 µg/mL (≈ 0.0457 µM) and an IC50 (KB [10]) of 0.016 µg/mL (≈ 0.0293 µM). It also gave an IC50 [11] of 0.026 µg/mL (≈ 0.0476 µM).
For `CC1(C)Oc2ccc3ccc(=O)oc3c2[C@@H](OC(=O)C23CCC(C)(C(=O)O2)C3(C)C)[C@H]1OC(=O)C12CCC(C)(C(=O)O1)C2(C)C` (stereo not given in full), the selectivity ratio at 96 h [7] was over 16.1 and the EC50 [8, 12] was 50 nM.
